Measurements as given in patent US9737535B2, “Methods for treating cancer using TOR kinase inhibitor combination therapy comprising administering substituted pyrazino[2,3-b]pyrazines” (Signal Pharmaceuticals, LLC, priority 2014, dated 2017).

Experiments:
Assay in all cases: Anti-proliferation assay (ATPLite), Chalice synergy score
Format in all cases: cell-based
BT-20 = test system: BT-20; parameters: scale not given here; details: Compound 1 in combination with the named second active agent, 72 h, mean of n = 3 experiments in triplicate
Excerpt: (§1) Cells were thawed from a liquid nitrogen preserved state.
(§2) The calculation for synergy score is provided below.
(§3) If T≧V0:100*[1−(T−V0)/(V−V0)]

HCC-1500 = test system: HCC-1500; parameters: scale not given here; details: Compound 1 in combination with the named second active agent, 72 h, mean of n = 3 experiments in triplicate
Excerpt: as §1, §2, §3

HCC-1187 = test system: HCC-1187; parameters: scale not given here; details: Compound 1 in combination with the named second active agent, 72 h, mean of n = 3 experiments in triplicate
Excerpt: as §1, §2, §3

HCC-1806 = details: Compound 1 in combination with the named second active agent, 72 h, mean of n = 3 experiments in triplicate
Excerpt: as §1, §2, §3

MDA-MB-157 = details: Compound 1 in combination with second active agent, mean self-cross + 2σ threshold 4.68
Excerpt: as §1, §2, §3

MCF7 = details: Compound 1 in combination with second active agent, mean self-cross + 2σ threshold 3.07
Excerpt: as §1, §2, §3

HCC70 = details: Compound 1 in combination with second active agent; HCC-70; mean self-cross + 2σ threshold 3.45
Excerpt: as §1, §2, §3

MDA-MB-231 = details: Compound 1 in combination with second active agent, mean self-cross + 2σ threshold 2.61
Excerpt: as §1, §2, §3

Hs-578-T = details: Compound 1 in combination with second active agent, mean self-cross + 2σ threshold 4.09
Excerpt: as §1, §2, §3

HCC-1937 = details: Compound 1 in combination with the named second active agent, 72 h, mean of n = 3 experiments in triplicate
Excerpt: as §1, §2, §3

MDA-MB-436 = details: Compound 1 in combination with second active agent, mean self-cross + 2σ threshold 1.91
Excerpt: as §1, §2, §3

BT-549 = details: Compound 1 in combination with the named second active agent, 72 h, mean of n = 3 experiments in triplicate
Excerpt: as §1, §2, §3

HCC-1428 = details: Compound 1 in combination with the named second active agent, 72 h, mean of n = 3 experiments in triplicate
Excerpt: as §1, §2, §3

BT-474 = details: Compound 1 in combination with the named second active agent, 72 h, mean of n = 3 experiments in triplicate
Excerpt: as §1, §2, §3

MDA-MB-468 = details: Compound 1 in combination with second active agent, mean self-cross + 2σ threshold 4.66
Excerpt: as §1, §2, §3

SMILES | Synergy score (BT-20) | Synergy score (HCC-1500) | Synergy score (HCC-1187) | Synergy score (HCC-1806) | Synergy score (MDA-MB-157) | Synergy score (MCF7) | Synergy score (HCC70) | Synergy score (MDA-MB-231) | Synergy score (Hs-578-T) | Synergy score (HCC-1937) | Synergy score (MDA-MB-436) | Synergy score (BT-549) | Synergy score (HCC-1428) | Synergy score (BT-474) | Synergy score (MDA-MB-468)
Clc1ccc(C2(c3ccc(-c4cn[nH]c4)cc3)CCNCC2)cc1 [AT7867] | 3.07 | 2.00 | 4.19 | 2.04 | 3.19 | 1.39 | 4.28 | 3.58 | 5.24 | 1.72 | 1.95 | 4.50 | 1.42 | 1.83 | 3.60
NC(=O)Nc1cc(-c2cccc(F)c2)sc1C(=O)N[C@H]1CCCNC1 [AZD7762] | 3.92 | 3.02 | 1.65 | 0.32 | 3.09 | 0.08 | 4.61 | 3.66 | 8.16 | 4.44 | 0.93 | 0.39 | 2.58 | 1.21 | 0.94
COc1ccc(-c2ccc3c(N4CCOC[C@@H]4C)nc(N4CCOC[C@@H]4C)nc3n2)cc1CO [AZD8055] | 0.70 | 2.98 | 2.00 | 1.47 | 1.04 | 1.22 | 1.13 | 0.61 | 1.55 | 2.24 | 0.15 | 0.98 | 1.79 | 1.53 | 1.69
COc1ccc(-c2cc3nccn3c(Nc3ncccc3C(N)=O)n2)cc1OC.Cl [BAY61-3606 Hydrochloride] | 0.20 | 0.02 | 3.17 | 0.48 | 1.49 | 1.49 | 3.93 | 0.79 | 5.49 | 0.18 | 0.94 | 2.31 | 1.21 | 0.04 | 5.47
COc1c(C)cnc(Cn2cnc3c(Cl)nc(N)nc32)c1C [BIIB021] | 3.71 | 1.11 | 0.45 | 1.01 | 3.94 | 0.15 | 9.58 | 1.22 | 1.19 | 1.44 | 0.33 | 0.12 | 4.02 | 2.83 | 5.46
NC(=O)[C@@H](CCC(F)(F)F)N(Cc1ccc(-c2ncon2)cc1F)S(=O)(=O)c1ccc(Cl)cc1 [BMS-708163] | 0.20 | 0.34 | 3.06 | 0.89 | 0.63 | 0.16 | 1.24 | 1.45 | 1.36 | 0.96 | 0.86 | 0.34 | 0.26 | 0.19 | 0.98
C[C@@]1(C(=O)Nc2ccc(F)nc2)CCCN1c1nc(Nc2cc(C3CC3)n[nH]2)c2cccn2n1 [BMS-754807] | 2.08 | 3.99 | 9.68 | 3.04 | 9.46 | 5.31 | 2.08 | 2.50 | 3.32 | 0.64 | 2.00 | 2.14 | 4.09 | 1.30 | 2.25
Cc1ccc(S(=O)(=O)/C=C/C#N)cc1 [Bay 11-7082] | 0.00 | 0.52 | 0.51 | 1.01 | 3.65 | 0.02 | 1.13 | 0.61 | 1.51 | 1.23 | 1.24 | 1.16 | 1.53 | 0.93 | 1.89
O=C(O)c1ccc2c(c1)nc(Nc1cccc(Cl)c1)c1ccncc12 [CX-4945] | 6.09 | 2.93 | 7.53 | 4.19 | 4.55 | 2.26 | 10.60 | 2.30 | 5.97 | 7.92 | 1.70 | 3.41 | 3.28 | 4.91 | 6.73
CO[C@H]1/C=C\C=C(/C)C(=O)NC2=CC(=O)C(NCCN(C)C)=C(C[C@@H](C)C[C@H](OC)[C@H](O)[C@@H](C)/C=C(\C)[C@@H]1OC(N)=O)C2=O [Compound 17-DMAG] | 5.94 | 0.99 | 0.33 | 1.40 | 6.09 | 0.13 | 11.10 | 1.00 | 0.45 | 1.70 | 0.61 | 0.01 | 2.46 | 2.24 | 7.72
C[C@]12CC[C@@H]3c4ccc(O)cc4C[C@@H](CCCCCCCCC[S+]([O-])CCCC(F)(F)C(F)(F)F)[C@H]3[C@@H]1CC[C@@H]2O (stereo partly drawn) [Fulvestrant] | 1.39 | 5.15 | 2.16 | 1.30 | 0.42 | 2.45 | 1.50 | 0.77 | 2.10 | 1.98 | 0.74 | 1.25 | 1.09 | 1.37 | 0.41
OCCn1cc(-c2ccc3c(c2)CC/C3=N\O)c(-c2ccncc2)n1 [GDC-0879] | 0.00 | 0.91 | 0.85 | 0.47 | 0.69 | 0.11 | 0.43 | 0.54 | 0.75 | 0.29 | 0.13 | 0.08 | 0.13 | 0.46 | 0.44
CS(=O)(=O)N1CCN(Cc2cc3nc(-c4cccc5[nH]ncc45)nc(N4CCOCC4)c3s2)CC1 [GDC-0941] | 6.56 | 1.45 | 5.18 | 6.16 | 5.60 | 5.22 | 6.42 | 1.76 | 7.23 | 4.39 | 1.25 | 4.39 | 1.90 | 5.04 | 3.21
CN(C)CCCn1cc(C2=C(c3c[nH]c4ccccc34)C(=O)NC2=O)c2ccccc21 [GF 109203X] | 1.04 | 3.41 | 4.47 | 0.43 | 6.19 | 0.35 | 4.47 | 2.28 | 2.35 | 3.03 | 2.60 | 1.73 | 0.47 | 0.47 | 10.60
CCc1cc(Nc2nccc(-c3c(-c4ccc(OC)c(C(=O)Nc5c(F)cccc5F)c4)nc4ccccn34)n2)c(OC)cc1N1CCC(N2CCN(S(C)(=O)=O)CC2)CC1 [GSK1904529A] | 1.07 | 1.63 | 1.68 | 1.00 | 0.82 | 2.77 | 2.15 | 0.09 | 0.97 | 1.86 | 1.22 | 0.81 | 0.16 | 1.09 | 2.44
